The record followed here is PubChem BioAssay (NCI).

Some test systems named below: BT-549 breast; CCRF-CEM leukemia; HOP-62 NSCLC; K-562 leukemia; NCI-H460 lung; NCI-H522 lung; NCI/ADR-RES ovarian; SF-539 CNS; TK-10 renal; UACC-62 melanoma.
Holding throughout (test): growth of human tumour cells (NCI), 48 h

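All cell lines were grown in 96-well plates and treated with compound for 48 hours. At the GI50, growth is halved. The concentration for full growth arrest is given as TGI.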

Take `Cc1cc(I)cc(CN(CCCN(C)C)C(C)C)c1O`: the GI50 was 11.5 µM in the assay on BT-549 breast; 0.116 µM in the assay on CCRF-CEM leukemia; 16.1 µM in the assay with HOP-62 NSCLC; 16.3 µM in the assay on K-562 leukemia; 15.9 µM with NCI-H460 lung; 16 µM with NCI-H522 lung. Besides, the GI50 in the assay on NCI/ADR-RES ovarian was 23.1 µM; in the assay with SF-539 CNS it was 15.3 µM; in the assay on TK-10 renal, 18.2 µM; in the assay with UACC-62 melanoma, 15.2 µM. In addition, the TGI with BT-549 breast was 23.9 µM; in the assay with CCRF-CEM leukemia, 1.03 µM; with HOP-62 NSCLC, 30.6 µM; in the assay on K-562 leukemia it was 34.7 µM; with NCI-H460 lung it was 29.8 µM; with NCI-H522 lung, 31.4 µM. Further, the TGI with NCI/ADR-RES ovarian came out at 61.6 µM; in the assay with SF-539 CNS, 29.1 µM; with TK-10 renal it was 33.1 µM; with UACC-62 melanoma it was 33.7 µM.
With `N#CC(C#N)=C/C=C(\Sc1nc2ccccc2s1)c1ccc(Cl)cc1`, the GI50 was 11.3 µM in the assay with BT-549 breast; 0.577 µM in the assay with CCRF-CEM leukemia; 14 µM in the assay with HOP-62 NSCLC; 1.45 µM with K-562 leukemia; 18 µM in the assay with NCI-H460 lung; 10.1 µM with NCI-H522 lung. For the same compound, the GI50 in the assay on NCI/ADR-RES ovarian was 7.19 µM; in the assay with SF-539 CNS it was 2.83 µM; in the assay with TK-10 renal, 6.18 µM; in the assay on UACC-62 melanoma, 8.89 µM. Further, the TGI is 26.2 µM with BT-549 breast; over 100 µM in the assay with CCRF-CEM leukemia; 30.5 µM with HOP-62 NSCLC; over 24.6 µM with K-562 leukemia; over 64.9 µM with NCI-H460 lung; 41.9 µM with NCI-H522 lung. Further, the TGI in the assay with NCI/ADR-RES ovarian amounted to 22.6 µM; in the assay on SF-539 CNS, 9.89 µM; in the assay on TK-10 renal it was 15 µM; in the assay on UACC-62 melanoma, 29.4 µM.
Take `CCOC(=S)SCC(=O)O`: the TGI in the assay on BT-549 breast is over 100 µM; in the assay on CCRF-CEM leukemia, 26.6 µM; with HOP-62 NSCLC, over 100 µM; in the assay with K-562 leukemia it was over 100 µM; with NCI-H460 lung, over 100 µM; in the assay with NCI-H522 lung, over 100 µM. Further, the TGI in the assay on NCI/ADR-RES ovarian, with SF-539 CNS, in the assay on TK-10 renal and in the assay with UACC-62 melanoma was over 100 µM throughout.
In the case of `Nc1n[nH]c2cccc(C#Cc3cccc(C(=O)Nc4ccc(CN5CCOCC5)c(C(F)(F)F)c4)c3)c12`, the GI50 was 2.14 µM in the assay with BT-549 breast; 2.26 µM in the assay on CCRF-CEM leukemia; 2.88 µM in the assay on HOP-62 NSCLC; 0.0233 µM in the assay on K-562 leukemia; 3.2 µM with NCI-H460 lung; 2.52 µM with NCI-H522 lung. Further, the GI50 with NCI/ADR-RES ovarian is 3.07 µM; with SF-539 CNS it was 1.05 µM; with TK-10 renal, 4.22 µM; with UACC-62 melanoma, 1.12 µM. The TGI was 6.03 µM in the assay on BT-549 breast; 11.5 µM with CCRF-CEM leukemia; 10.1 µM in the assay on HOP-62 NSCLC; over 100 µM in the assay on K-562 leukemia; 10.3 µM with NCI-H460 lung; 9.28 µM with NCI-H522 lung. Also, the TGI was over 100 µM with NCI/ADR-RES ovarian, 3.47 µM in the assay with SF-539 CNS, 12.9 µM in the assay on TK-10 renal and 3.52 µM in the assay with UACC-62 melanoma.
For `C[C@]12CCC3c4ccc(O)cc4CCC3C1CC[C@@]2(O)CNC(=O)/C=C/c1ccc(O)c(O)c1` (stereo not given in full), the GI50 in the assay on BT-549 breast is 3.03 µM; in the assay on CCRF-CEM leukemia, 4.33 µM; in the assay with HOP-62 NSCLC, 6.78 µM; in the assay on K-562 leukemia, 3.38 µM; in the assay on NCI-H460 lung it was 4.9 µM; in the assay with NCI-H522 lung it was 2.51 µM. Besides, the GI50 with NCI/ADR-RES ovarian is 23.9 µM; in the assay with SF-539 CNS it was 5.1 µM; in the assay on TK-10 renal it was 2.52 µM; with UACC-62 melanoma, 5.22 µM. The TGI in the assay with BT-549 breast is 15.3 µM; in the assay on CCRF-CEM leukemia it was 31.2 µM; in the assay with HOP-62 NSCLC it was 22.6 µM; in the assay on K-562 leukemia, 12.6 µM; in the assay on NCI-H460 lung it was 31.6 µM; in the assay on NCI-H522 lung, 5.91 µM. For the same compound, the TGI with NCI/ADR-RES ovarian was over 100 µM; in the assay with SF-539 CNS, 18 µM; in the assay with TK-10 renal, 13.7 µM; with UACC-62 melanoma, 17 µM.
Take `CCCOc1cc2ccccc2cc1C(=O)Nc1nc(N)c2c(ccc3nccc32)[nH]1`: the GI50 was 0.0998 µM in the assay with BT-549 breast; 0.042 µM in the assay with CCRF-CEM leukemia; 0.0798 µM in the assay with HOP-62 NSCLC; 0.0339 µM in the assay with K-562 leukemia; 0.0417 µM in the assay on NCI-H460 lung; 0.018 µM in the assay on NCI-H522 lung. Besides, the GI50 with NCI/ADR-RES ovarian is 0.0962 µM; with SF-539 CNS, 0.0538 µM; in the assay on TK-10 renal, 0.458 µM; in the assay with UACC-62 melanoma, 0.0403 µM. Besides, the TGI is 2.11 µM in the assay on BT-549 breast; 1.49 µM in the assay on CCRF-CEM leukemia; 2.69 µM in the assay with HOP-62 NSCLC; 1.26 µM with K-562 leukemia; 1.31 µM with NCI-H460 lung; 0.0426 µM in the assay on NCI-H522 lung. Further, the TGI was 2.24 µM in the assay on NCI/ADR-RES ovarian, 1.04 µM with SF-539 CNS, 2.06 µM with TK-10 renal and 1.96 µM with UACC-62 melanoma.
`COCCOc1ccc(-c2nc3ccc(-c4nc5ccc(N6CCN(C)CC6)cc5[nH]4)cc3[nH]2)cc1`: the GI50 with BT-549 breast was 1.76 µM; in the assay with CCRF-CEM leukemia it was 1.02 µM; in the assay with HOP-62 NSCLC it was 1.56 µM; in the assay on K-562 leukemia, 0.911 µM; with NCI-H460 lung, 3.63 µM; in the assay with NCI-H522 lung, 0.341 µM. The GI50 was over 100 µM in the assay on NCI/ADR-RES ovarian, 1.22 µM in the assay with SF-539 CNS, 4.74 µM in the assay with TK-10 renal and 0.365 µM in the assay on UACC-62 melanoma. In addition, the TGI with BT-549 breast is 3.96 µM; in the assay on CCRF-CEM leukemia, over 100 µM; in the assay with HOP-62 NSCLC, 14.5 µM; in the assay on K-562 leukemia it was over 100 µM; in the assay with NCI-H460 lung, 14.7 µM; in the assay with NCI-H522 lung, 2.36 µM. Also, the TGI in the assay on NCI/ADR-RES ovarian was over 100 µM; in the assay with SF-539 CNS, 2.83 µM; in the assay with TK-10 renal, 40.2 µM; with UACC-62 melanoma it was 2.02 µM.
For `COc1cccc(C2SC(N)=Nc3c2c(C)nn3C(=O)c2ccccc2O)c1` (stereo not given), the TGI in the assay on BT-549 breast, with CCRF-CEM leukemia, with HOP-62 NSCLC, in the assay with K-562 leukemia, with NCI-H460 lung and in the assay with NCI-H522 lung was over 10 µM throughout. The TGI in the assay on NCI/ADR-RES ovarian was over 10 µM; with SF-539 CNS, over 2.64 µM; in the assay with TK-10 renal, over 10 µM; in the assay with UACC-62 melanoma, over 10 µM.
